Assay results: patent US11299487B2, “Compounds and compositions as modulators of TLR signaling” (Neuropore Therapies, Inc., priority 2019, dated 2022)
Read-outs that look alike come from different tables or passages of the source.

Assays:
Format in all cases: cell-based
human TLR2 [1] = target: T1, human TLR2 (Homo sapiens, UniProt O60603); assay: HEK-Blue hTLR2 antagonism assay (SEAP reporter) with agonist Pam2CSK4 (TLR2/6 agonist); details: HEK-Blue hTLR2 cells, ~3×EC50 Pam2CSK4, 18 h, SEAP OD 655 nm, 8-point dilutions
T1 construct: host or cells: HEK-Blue hTLR2 (HEK-293)

human TLR2 [2] = target: T1, human TLR2; assay: HEK-Blue hTLR2 antagonism assay (SEAP reporter) with agonist Pam3CSK4 (TLR1/2 agonist); details: HEK-Blue hTLR2 cells, ~3×EC50 Pam3CSK4, 18 h, SEAP OD 655 nm, 8-point dilutions
human TLR9 = target: T2, human TLR9 (Homo sapiens, UniProt Q9NR96); assay: HEK-Blue hTLR9 assay (SEAP reporter) with agonist ODN 2006; details: HEK-Blue hTLR9 cells, ~3×EC50 ODN 2006, 18 h, exact values 8-point dilutions, approximate (~ or <) 4-point dilutions, read-out: ~IC50 (μM) with ODN2006
T2 construct: host or cells: HEK-Blue hTLR9 (HEK-293)
T2 sequence (Q9NR96 26-1032): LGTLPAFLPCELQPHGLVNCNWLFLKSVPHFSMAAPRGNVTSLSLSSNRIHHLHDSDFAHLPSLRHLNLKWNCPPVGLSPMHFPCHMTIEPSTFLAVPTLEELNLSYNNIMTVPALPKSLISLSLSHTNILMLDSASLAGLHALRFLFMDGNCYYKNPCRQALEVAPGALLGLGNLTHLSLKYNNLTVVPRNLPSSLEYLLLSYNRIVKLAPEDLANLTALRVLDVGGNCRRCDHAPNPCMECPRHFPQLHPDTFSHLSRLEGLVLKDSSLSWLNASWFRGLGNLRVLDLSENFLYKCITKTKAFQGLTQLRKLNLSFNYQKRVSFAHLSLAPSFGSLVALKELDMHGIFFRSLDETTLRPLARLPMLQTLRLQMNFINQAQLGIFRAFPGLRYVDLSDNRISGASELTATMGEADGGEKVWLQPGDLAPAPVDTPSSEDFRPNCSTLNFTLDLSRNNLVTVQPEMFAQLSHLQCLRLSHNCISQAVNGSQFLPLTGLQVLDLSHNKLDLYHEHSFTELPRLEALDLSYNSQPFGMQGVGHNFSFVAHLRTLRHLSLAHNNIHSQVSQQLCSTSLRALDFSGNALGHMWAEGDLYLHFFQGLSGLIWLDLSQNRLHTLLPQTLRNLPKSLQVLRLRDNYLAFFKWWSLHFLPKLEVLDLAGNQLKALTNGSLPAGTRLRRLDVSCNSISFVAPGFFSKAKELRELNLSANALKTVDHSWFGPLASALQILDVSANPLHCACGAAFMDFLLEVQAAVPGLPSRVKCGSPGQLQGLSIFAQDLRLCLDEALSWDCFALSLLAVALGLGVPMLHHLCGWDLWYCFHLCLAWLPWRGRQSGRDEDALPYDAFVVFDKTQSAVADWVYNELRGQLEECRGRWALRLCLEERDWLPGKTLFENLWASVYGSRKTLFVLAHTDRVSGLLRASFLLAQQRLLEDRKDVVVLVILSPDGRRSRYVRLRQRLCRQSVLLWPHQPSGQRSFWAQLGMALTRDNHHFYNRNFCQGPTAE
Experimental: Synthetic ODNs (ODN 2006 (ODN7909), class B CpG oligonucleotide, TLR9 agonist) was obtained from InvivoGen and was dissolved in endotoxin-free water to a concentration 500 μM, vortexed until complete solubilization, and stored in aliquots at −20° C. Prior to addition to cells, an aliquot of the dissolved ligand was vortexed shortly and then was diluted in medium to 50 μM. The EC50 of the agonist for each assay run was determined by using 3-fold dilutions from the starting concentration 10 μM.
Test compounds were solubilized fresh to 10-20 mM stocks in DMSO and sonicated for 5-10 minutes in a water bath sonicator. Serial dilutions were prepared in DMSO, and then diluted in medium. The final concentration of DMSO used in the assay was 1%.
HEK-Blue hTLR9 reporter cells (InvivoGen) are HEK-293 cells stably expressing both the human TLR9 gene and a secreted embryonic alkaline phosphatase (SEAP) reporter construct downstream of NFκB promotor sites. HEK-Blue hTLR9 cells were cultured according to manufacturer's protocol using Dulbecco's Modified Eagle Medium (DMEM; Gibco) containing 1× GlutaMax (Gibco), 10% heat-inactivated Fetal Bovine Serum (Gibco), Pen-Strep (50 U/mL penicillin, 50 μg/mL streptomycin, Gibco), 100 μg/mL Normocin (InvivoGen), and the selective antibiotics, 10 μg/mL Blasticidin (InvivoGen), and 100 μg/mL Zeocin (InvivoGen). Quanti-Blue reagent (InvivoGen) for detection and quantification of secreted alkaline phosphatase was dissolved in 100 mL of endotoxin-free water, warmed to 37° C. for 30 minutes and then filtered using a 0.2 μm membrane.
On day 1, 50 μL of each test compound dilution in duplicates or a vehicle control was added to each well of a 96-well plate followed by addition of 150 μL of HEK-Blue hTLR9 cell suspension (1×10^5 cells/well) and incubated at 37° C./5% CO2 for 2 h. Next, 50 μL of an approximate 3×EC50 concentration of TLR9 agonist, ODN 2006, was added to the wells containing test compounds or the vehicle control. The plates were then incubated at 37° C./5% CO2 for 18 h. For each assay run, vehicle-treated HEK-Blue hTLR9 cells were treated with serial dilutions of agonist to determine EC50 values for the respective run.
On day 2, secreted alkaline phosphatase (SEAP) activity was detected in cell culture supernatants. In brief, 30 μL was collected from each well and transferred to a 96-well plate. Next, 200 μL of Quanti-Blue detection reagent was added to each well. Plates were incubated at 37° C. for 60 min. and SEAP activity was assessed by spectrophotometer OD reading at 655 nm. Table A and Table B show the activities of the compounds tested in HEK-Blue hTLR9 cells against ODN 2006. The activities of the compounds against ODN 2006 are presented as IC50 values which were defined as concentrations of the compounds where percent inhibition of the signal induced by agonist is equal to 50. Exact IC50 values were calculated based on 8-point dilutions for each compound. Approximate IC50 values (˜ or <) were calculated based on 4-point dilutions for each compound.

T1 sequence (O60603 21-784): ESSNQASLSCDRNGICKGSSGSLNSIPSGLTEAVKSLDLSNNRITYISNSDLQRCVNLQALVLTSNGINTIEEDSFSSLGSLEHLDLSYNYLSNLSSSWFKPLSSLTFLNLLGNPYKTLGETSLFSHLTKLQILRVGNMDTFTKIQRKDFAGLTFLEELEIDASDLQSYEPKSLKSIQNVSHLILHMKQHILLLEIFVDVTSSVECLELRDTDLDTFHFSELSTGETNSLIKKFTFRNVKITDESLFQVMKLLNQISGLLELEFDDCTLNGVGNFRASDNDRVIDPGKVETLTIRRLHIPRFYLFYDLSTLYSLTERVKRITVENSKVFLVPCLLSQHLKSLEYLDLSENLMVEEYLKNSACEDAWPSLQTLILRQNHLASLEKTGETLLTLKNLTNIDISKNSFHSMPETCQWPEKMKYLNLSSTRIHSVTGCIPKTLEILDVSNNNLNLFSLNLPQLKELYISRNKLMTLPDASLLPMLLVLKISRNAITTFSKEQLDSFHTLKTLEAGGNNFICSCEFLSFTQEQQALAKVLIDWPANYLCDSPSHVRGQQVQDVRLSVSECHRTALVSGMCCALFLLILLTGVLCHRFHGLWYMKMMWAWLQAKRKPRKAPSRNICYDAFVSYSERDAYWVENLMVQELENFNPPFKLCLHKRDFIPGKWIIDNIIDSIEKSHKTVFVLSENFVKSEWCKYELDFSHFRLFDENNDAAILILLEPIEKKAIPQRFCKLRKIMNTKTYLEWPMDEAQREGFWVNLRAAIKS

Compound	IC50 (human TLR2 [1]; Table A) [µM]	IC50 (human TLR2 [2]; Table A) [µM]	IC50 (human TLR9; Table A) [µM]	IC50 (human TLR2 [1]; Table B) [µM]	IC50 (human TLR2 [2]; Table B) [µM]	IC50 (human TLR9; Table B) [µM]
O=Cc1cc(-c2cc(-c3ccc(N4CCCC4)cc3)cs2)cc(F)c1O [Compound A51, 3-fluoro-2-hydroxy-5-(4-(4-(pyrrolidin-1-yl)phenyl)thiophen-2-yl)benzaldehyde]	1.7	0.7	< 1.2	–	–	–
O=Cc1cc(-c2csc(-c3ccc(N4CCCC4)cc3)c2)cc(F)c1O [Compound A52, 3-fluoro-2-hydroxy-5-(5-(4-(pyrrolidin-1-yl)phenyl)thiophen-3-yl)benzaldehyde]	0.7	0.2	< 1.2	–	–	–
O=Cc1cc(-c2cnc(-c3ccc(N4CCCC4)cc3)s2)cc(F)c1O [Compound A55, 3-fluoro-2-hydroxy-5-(2-(4-(pyrrolidin-1-yl)phenyl)thiazol-5-yl)benzaldehyde]	0.6	0.4	0.2	–	–	–
O=Cc1cc(-c2csc(-c3ccc(N4CCCC4)cc3)n2)cc(F)c1O [Compound A57, 3-fluoro-2-hydroxy-5-(2-(4-(pyrrolidin-1-yl)phenyl)thiazol-4-yl)benzaldehyde]	1	0.3	0.3	–	–	–
O=Cc1cc(-c2nsc(-c3ccc(N4CCCC4)cc3)n2)cc(F)c1O [Compound A61, 3-fluoro-2-hydroxy-5-(5-(4-(pyrrolidin-1-yl)phenyl)-1,2,4-thiadiazol-3-yl)benzaldehyde]	3.2	1	< 1.2	–	–	–
O=Cc1cc(-c2nc(-c3ccc(N4CCCC4)cc3)ns2)cc(F)c1O [Compound A62, 3-fluoro-2-hydroxy-5-(3-(4-(pyrrolidin-1-yl)phenyl)-1,2,4-thiadiazol-5-yl)benzaldehyde]	0.7	0.4	0.2	–	–	–
O=Cc1cc(-c2cnc(-c3ccccc3)o2)cc(F)c1O [Compound A88, 3-fluoro-2-hydroxy-5-(2-phenyloxazol-5-yl)benzaldehyde]	2.1	1.3	~3	–	–	–
O=Cc1cc(-c2cnc(-c3ccccc3)s2)cc(F)c1O [Compound A91, 3-fluoro-2-hydroxy-5-(2-phenylthiazol-5-yl)benzaldehyde]	3.8	2.1	< 1.2	–	–	–
O=Cc1cc(-c2nc(-c3ccccc3)cs2)cc(F)c1O [Compound A93, 3-fluoro-2-hydroxy-5-(4-phenylthiazol-2-yl)benzaldehyde]	4.8	2.1	< 1.2	–	–	–
O=Cc1cc(-c2nnc(-c3ccccc3)s2)cc(F)c1O [Compound A94, 3-fluoro-2-hydroxy-5-(5-phenyl-1,3,4-thiadiazol-2-yl)benzaldehyde]	14.8	9.2	< 1.2	–	–	–
O=Cc1cc(-c2nc(-c3ccccc3)ns2)cc(F)c1O [Compound A95, 3-fluoro-2-hydroxy-5-(3-phenyl-1,2,4-thiadiazol-5-yl)benzaldehyde]	3	2.3	~1.4	–	–	–
O=Cc1cc(-c2nc(-c3ccccc3)n[nH]2)cc(F)c1O [Compound A96, 3-fluoro-2-hydroxy-5-(3-phenyl-1H-1,2,4-triazol-5-yl)benzaldehyde]	12.1	8.8	~6.3	–	–	–
O=Cc1cc(C#Cc2ccc(N3CCCC3)cc2)cc(F)c1O [Compound B1, 3-fluoro-2-hydroxy-5-((4-(pyrrolidin-1-yl)phenyl)ethynyl)benzaldehyde]	–	–	–	1.1	0.7	< 1.2

The remaining lines, values ahead:

IC50 (human TLR2 [1]; Table A) [µM]	IC50 (human TLR2 [2]; Table A) [µM]	IC50 (human TLR9; Table A) [µM]	IC50 (human TLR2 [1]; Table B) [µM]	IC50 (human TLR2 [2]; Table B) [µM]	IC50 (human TLR9; Table B) [µM]	Compound
–	–	–	3.7	2.2	< 1.2	O=Cc1cc(C#Cc2ccc(N3CCOCC3)cc2)cc(F)c1O [Compound B3, 3-fluoro-2-hydroxy-5-((4-morpholinophenyl)ethynyl)benzaldehyde]
–	–	–	6.3	2.7	~1.5	O=Cc1c(O)cc(C#Cc2ccc(N3CCCC3)cc2)cc1F [Compound B4, 2-fluoro-6-hydroxy-4-((4-(pyrrolidin-1-yl)phenyl)ethynyl)benzaldehyde]
–	–	–	35.7	20.8	> 33	COc1cc(C#Cc2ccc(N3CCCC3)cc2)cc(O)c1C=O [Compound B7, 2-hydroxy-6-methoxy-4-((4-(pyrrolidin-1-yl)phenyl)ethynyl)benzaldehyde]
–	–	–	12	10.6	< 1.2	O=Cc1cc(C(=O)Nc2ccccc2)cc(F)c1O [Compound B11, 3-fluoro-5-formyl-4-hydroxy-N-phenylbenzamide]
–	–	–	2.7	2	0.7	O=Cc1cc(C(=O)Nc2ccc(N3CCCC3)cc2)cc(F)c1O [Compound B12, 3-fluoro-5-formyl-4-hydroxy-N-(4-(pyrrolidin-1-yl)phenyl)benzamide]
–	–	–	1.3	1.5	> 33	O=Cc1cc(C(=O)Nc2ccc(C(F)(F)F)c(Cl)c2)cc(F)c1O [Compound B14, N-(3-Chloro-4-(trifluoromethyl)phenyl)-3-fluoro-5-formyl-4-hydroxybenzamide]
–	–	–	12.7	6.6	~2.9	O=Cc1cc(S(=O)(=O)Nc2ccc(N3CCCC3)cc2)cc(F)c1O [Compound B17, 3-fluoro-5-formyl-4-hydroxy-N-(4-(pyrrolidin-1-yl)phenyl)benzenesulfonamide]
–	–	–	8.7	3.7	< 1.2	O=Cc1cc(NC(=O)Nc2ccc(N3CCCC3)cc2)cc(F)c1O [Compound B65, 1-(3-fluoro-5-formyl-4-hydroxyphenyl)-3-(4-(pyrrolidin-1-yl)phenyl)urea]
